Consider nine compounds from ChEMBL document CHEMBL1201862, “PubChem BioAssay data set” (2004).

Test systems include A549; Malme-3M; MOLT-4; SNB-75; CCRF-CEM; HOP-62; NCI/ADR-RES; BT-549; OVCAR-4; SF-295; RPMI-8226; NCI-H460; EKVX; TK-10; HCT-116; HCT-15; OVCAR-3; CAKI-1; SF-539; RXF 393.
What all share (assay): NCI anticancer screen, dose series, 48 h

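How tested: cells in 96-well plates exposed to compound for 48 hours at five concentrations. GI50 = concentration required for 50% inhibition of growth.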 Active and inactive are the calls of the source. Cut-off read from the data, not from the text of the source: active = GI50 up to about 1.1 µM and inactive = higher. Starred links: 1 amine or outer side, 2 acyl side, 3 side chain; linkers in the order of their positions; H or OH if unused. Positions of bridges follow the written chain, without caps; N, C: chain ends. Non-standard residues stand in square brackets, D forms with d. Residues, ends and D or L forms follow the SMILES beside them. ξ: configuration not given here. *: point of attachment. γ4hArg(2R,3R-(OH)2) = N=C(N)NCCC[C@H](N[*:1])[C@@H](O)[C@@H](O)C(=O)[*:2]; Gln(3S,4R-Me2) = C[C@H]([C@H](N)C(=O)O)[C@@H](C)C(N)=O; X50 = CC(C)C[C@H](C)[C@@H](O)[C@@H](C)C(=O)*; X51 = COC(c1ccc(O)cc1)C(N[*:1])C(=O)[*:2]; NMeQ = CN[C@@H](CCC(N)=O)C(=O)O; Thr(3ξ) = CC(O)[C@H](N)C(=O)O; NMeA = CN[C@@H](C)C(=O)O Where only a bound is given, the exact number is not on record here.

On to `CN(C)/N=C/c1cn(C)c(=O)n(C)c1=O`, for which the GI50 in the assay on A549 was > 100 µM (inactive); in the assay on Malme-3M, > 100 µM (inactive); in the assay on MOLT-4 it was > 100 µM (inactive); in the assay with SNB-75, 35.4 µM (inactive); in the assay on CCRF-CEM it was > 100 µM (inactive); with HOP-62, > 100 µM (inactive). The GI50 in the assay with NCI/ADR-RES, in the assay on BT-549, in the assay with OVCAR-4, with SF-295, with RPMI-8226 and in the assay on NCI-H460 was > 100 µM (inactive) throughout. Moreover, the GI50 in the assay with EKVX is > 100 µM (inactive); in the assay with TK-10, > 100 µM (inactive); with HCT-116 it was > 100 µM (inactive); in the assay on HCT-15 it was over 100 µM; with OVCAR-3, > 100 µM (inactive); in the assay on CAKI-1, > 100 µM (inactive). Besides, the GI50 in the assay on SF-539 and in the assay on RXF 393 was > 100 µM (inactive) in each case.

Regarding `COc1ccc(/C(CC2OC(=O)c3ccccc32)=N\NC(N)=O)cc1` (stereo not given), the GI50 in the assay on A549, with Malme-3M, with MOLT-4, with SNB-75, in the assay on CCRF-CEM and in the assay with HOP-62 was > 100 µM (inactive) each time. Besides, the GI50 in the assay with NCI/ADR-RES, with BT-549, in the assay on OVCAR-4, in the assay on SF-295, in the assay with RPMI-8226 and with NCI-H460 was > 100 µM (inactive) throughout. The GI50 with EKVX is > 100 µM (inactive); with TK-10, > 100 µM (inactive); in the assay on HCT-116, > 100 µM (inactive); in the assay on HCT-15, over 100 µM; in the assay with OVCAR-3, > 100 µM (inactive); with CAKI-1, > 100 µM (inactive). Besides, the GI50 with SF-539 and in the assay with RXF 393 was > 100 µM (inactive) each time.

For `COc1cc(/N=N/N(C)C)c(C(C)c2c3cc(OC)c(OC)cc3cc[n+]2C)cc1OC` (stereo not given), the GI50 is > 100 µM (inactive) in the assay with A549; 34.4 µM (inactive) with Malme-3M; 56.1 µM (inactive) with MOLT-4; 31.6 µM (inactive) with SNB-75; 37.3 µM (inactive) in the assay on CCRF-CEM; 49.7 µM (inactive) with HOP-62. Moreover, the GI50 in the assay on NCI/ADR-RES is > 100 µM (inactive); in the assay on BT-549, 46.9 µM (inactive); with OVCAR-4 it was 51.9 µM (inactive); in the assay with SF-295, > 100 µM (inactive); in the assay with RPMI-8226, 7.76 µM (inactive); in the assay with NCI-H460, 30.8 µM (inactive). Besides, the GI50 in the assay on EKVX was > 100 µM (inactive); in the assay on TK-10 it was 31.6 µM (inactive); in the assay on HCT-116 it was 30 µM (inactive); with HCT-15, over 100 µM; in the assay on OVCAR-3, 26.7 µM (inactive); in the assay on CAKI-1, > 100 µM (inactive). The results for the GI50 in the assay on SF-539 and with RXF 393 were 10.3 µM (inactive) and 17.6 µM (inactive), respectively.

With `CSC(=N/N=C(\C)c1ccc(S(=O)(=O)N(C)c2ccccc2)cc1)SC`, the GI50 is > 100 µM (inactive) in the assay with A549; > 100 µM (inactive) with Malme-3M; 17.2 µM (inactive) in the assay on MOLT-4; > 63.1 µM (inactive) in the assay with SNB-75; 15.6 µM (inactive) with CCRF-CEM; > 62.5 µM (inactive) in the assay on HOP-62. The GI50 in the assay with NCI/ADR-RES is > 100 µM (inactive); with BT-549, > 50.8 µM (inactive); in the assay on OVCAR-4, > 58.6 µM (inactive); in the assay with SF-295 it was > 64.7 µM (inactive); in the assay with RPMI-8226, 13.1 µM (inactive); with NCI-H460, > 100 µM (inactive). The GI50 in the assay on EKVX is > 65 µM (inactive); with TK-10, > 100 µM (inactive); in the assay with HCT-116, > 64.7 µM (inactive); with HCT-15 it was over 66.7 µM; with OVCAR-3 it was > 63.4 µM (inactive); in the assay on CAKI-1, > 64.9 µM (inactive). Besides, the GI50 is > 52.4 µM (inactive) in the assay with SF-539 and 27.7 µM (inactive) with RXF 393.

In the case of `O=[N+]([O-])c1cc(Cl)ccc1S(=O)(=O)c1ccccc1`, the GI50 in the assay with A549 was > 100 µM (inactive); in the assay on Malme-3M, 52.8 µM (inactive); with MOLT-4, > 100 µM (inactive); with SNB-75 it was 30.8 µM (inactive); in the assay with CCRF-CEM, 29.8 µM (inactive); with HOP-62 it was 39.7 µM (inactive). Further, the GI50 in the assay with NCI/ADR-RES is > 100 µM (inactive); in the assay with BT-549 it was 60.7 µM (inactive); in the assay on OVCAR-4, 24.7 µM (inactive); in the assay with SF-295, > 100 µM (inactive); in the assay with RPMI-8226 it was > 100 µM (inactive); with NCI-H460 it was > 100 µM (inactive). For the same compound, the GI50 with EKVX was > 100 µM (inactive); in the assay with TK-10 it was > 100 µM (inactive); in the assay on HCT-116, 35.5 µM (inactive); in the assay on HCT-15, 27.6 µM; in the assay with OVCAR-3, > 100 µM (inactive); in the assay on CAKI-1, > 100 µM (inactive). The GI50 in the assay on SF-539 was > 100 µM (inactive); in the assay on RXF 393, 54.6 µM (inactive).

For the compound `CN(N)/N=N/c1[nH]cnc1[N+](=O)[O-]`, the GI50 with A549 is > 100 µM (inactive); with Malme-3M, > 100 µM (inactive); in the assay with MOLT-4, 14.6 µM (inactive); in the assay with SNB-75, > 100 µM (inactive); in the assay with CCRF-CEM, 5.01 µM (inactive); in the assay on HOP-62, > 100 µM (inactive). Also, the GI50 was 35.4 µM (inactive) in the assay with NCI/ADR-RES; > 100 µM (inactive) in the assay with BT-549; 56.1 µM (inactive) in the assay with OVCAR-4; > 100 µM (inactive) in the assay on SF-295; 22 µM (inactive) in the assay with RPMI-8226; > 100 µM (inactive) in the assay with NCI-H460. The GI50 with EKVX was 94.8 µM (inactive); in the assay with TK-10 it was > 100 µM (inactive); in the assay on HCT-116, 34.8 µM (inactive); in the assay on HCT-15, over 100 µM; in the assay on OVCAR-3, > 100 µM (inactive); with CAKI-1, 20.8 µM (inactive). The GI50 with SF-539 is 46.6 µM (inactive); in the assay on RXF 393 it was > 100 µM (inactive).

Take `Nc1cccc(OCC2CCCN3CCCCC23)c1` (stereo not given): the GI50 is 21.4 µM (inactive) with A549; 23.5 µM (inactive) with Malme-3M; 20.9 µM (inactive) in the assay on MOLT-4; 16.7 µM (inactive) with SNB-75; 15.2 µM (inactive) with CCRF-CEM; 16.2 µM (inactive) in the assay with HOP-62. Also, the GI50 in the assay on NCI/ADR-RES is 19.3 µM (inactive); with BT-549, 17.1 µM (inactive); with OVCAR-4, 23.2 µM (inactive); with SF-295 it was 17.8 µM (inactive); with RPMI-8226, 15.2 µM (inactive); with NCI-H460 it was 19 µM (inactive). Moreover, the GI50 is 17.2 µM (inactive) in the assay on EKVX; 17.4 µM (inactive) in the assay on TK-10; 16.3 µM (inactive) in the assay with HCT-116; 17.5 µM in the assay on HCT-15; 16.9 µM (inactive) in the assay with OVCAR-3; 17.6 µM (inactive) in the assay on CAKI-1. Besides, the GI50 was 18.3 µM (inactive) in the assay with SF-539 and 20.5 µM (inactive) in the assay with RXF 393.

Take `Cc1ccc(O)c(Cc2nc3ccccc3nc2-c2cccc(Br)c2)c1`: the GI50 is > 100 µM (inactive) in the assay on A549; > 100 µM (inactive) in the assay with Malme-3M; 25.2 µM (inactive) in the assay on MOLT-4; > 100 µM (inactive) in the assay on SNB-75; 28.4 µM (inactive) with CCRF-CEM; > 100 µM (inactive) in the assay on HOP-62. Moreover, the GI50 in the assay on NCI/ADR-RES was > 100 µM (inactive); in the assay with BT-549 it was > 100 µM (inactive); in the assay with OVCAR-4 it was > 100 µM (inactive); in the assay on SF-295 it was > 100 µM (inactive); in the assay on RPMI-8226, 47.3 µM (inactive); with NCI-H460 it was > 100 µM (inactive). Further, the GI50 in the assay with EKVX is > 100 µM (inactive); in the assay with TK-10, > 100 µM (inactive); with HCT-116, 48.5 µM (inactive); with HCT-15 it was 22.3 µM; with OVCAR-3, > 100 µM (inactive); in the assay on CAKI-1, 85.3 µM (inactive). The GI50 with SF-539 and in the assay with RXF 393 was > 100 µM (inactive) in each case.

`COC(c1ccc(O)cc1)C1NC(=O)[C@H](CCC(N)=O)N(C)C(=O)[C@H](CC(C)C)NC(=O)[C@@H](CCCN=C(N)N)NC(=O)[C@H](C(C)O)NC(=O)[C@@H](NC(=O)[C@@H](NC(=O)[C@H](O)[C@H](O)[C@H](CCCN=C(N)N)NC(=O)[C@H](C)NC(=O)[C@H](C)[C@H](O)[C@@H](C)CC(C)C)[C@@H](C)[C@@H](C)C(N)=O)[C@@H](C)OC(=O)[C@H](C)N(C)C1=O` (stereo partly drawn) (X50-A[γ4hArg(2R,3R-(OH)2)][Gln(3S,4R-Me2)]T[Thr(3ξ)][dR]L[NMeQ][X51][NMeA]; ester 4-C): the GI50 with A549 was 0.141 µM (active); in the assay with Malme-3M it was 0.084 µM (active); in the assay on MOLT-4, 0.139 µM (active); with SNB-75, 0.0902 µM (active); in the assay on CCRF-CEM it was 0.151 µM (active); with HOP-62, 0.15 µM (active). The GI50 in the assay on NCI/ADR-RES is 0.222 µM (active); with BT-549 it was 0.242 µM (active); in the assay on OVCAR-4 it was 0.134 µM (active); in the assay with SF-295, 0.0925 µM (active); in the assay on RPMI-8226 it was 0.106 µM (active); in the assay on NCI-H460, 0.0604 µM (active). In addition, the GI50 is 0.0995 µM (active) in the assay with EKVX; 0.146 µM (active) in the assay on TK-10; 0.281 µM (active) in the assay on HCT-116; 0.133 µM with HCT-15; 0.083 µM (active) in the assay on OVCAR-3; 0.102 µM (active) in the assay with CAKI-1. The GI50 is 0.0859 µM (active) in the assay on SF-539 and 0.267 µM (active) with RXF 393.
